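In this assay, cells in 96-well plates receive the compound at five concentrations for 48 hours. Endpoints are linearly interpolated between the surrounding concentrations. TGI marks complete inhibition of growth.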
Tests used:
Test in all cases: NCI-60 cell line screen, 48 h
[1] = test system: SN12C renal
[2] = test system: COLO 205 colon
[3] = test system: KM12 colon
[4] = test system: DU-145 prostate
[5] = test system: SNB-75 CNS
[6] = test system: SNB-19 CNS
[7] = test system: SK-MEL-28 melanoma
[8] = test system: TK-10 renal
[9] = test system: UACC-257 melanoma
[10] = test system: A498 renal
[11] = test system: HCC-2998 colon
[12] = test system: NCI-H226 lung
[13] = test system: SK-MEL-5 melanoma
[14] = test system: OVCAR-4 ovarian
[15] = test system: M14 melanoma
[16] = test system: UO-31 renal
[17] = test system: SF-539 CNS
[18] = test system: HCT-116 colon
[19] = test system: MCF7 breast
[20] = test system: MALME-3M melanoma
[21] = test system: EKVX NSCLC
[22] = test system: OVCAR-5 ovarian
[23] = test system: MDA-N
[24] = test system: IGROV1 ovarian
[25] = test system: ACHN renal
[26] = test system: OVCAR-3 ovarian
[27] = test system: OVCAR-8 ovarian
[28] = test system: 786-0 renal
[29] = test system: BT-549 breast
[30] = test system: SW-620 colon
[31] = test system: HOP-62 NSCLC
[32] = test system: MDA-MB-231 breast
[33] = test system: SK-OV-3 ovarian
[34] = test system: CAKI-1 renal
[35] = test system: NCI-H460 lung
[36] = test system: HCT-15 colon
[37] = test system: UACC-62 melanoma
[38] = test system: K-562 leukemia
[39] = test system: T-47D breast
[40] = test system: CCRF-CEM leukemia
[41] = test system: SF-268 CNS
[42] = test system: A549 NSCLC
[43] = test system: PC-3 prostate
[44] = test system: NCI/ADR-RES ovarian
[45] = test system: SR leukemia
[46] = test system: MOLT-4 leukemia
[47] = test system: SF-295 CNS
[48] = test system: HL-60(TB) leukemia
[49] = test system: NCI-H23 lung
[50] = test system: HT29 colon
[51] = test system: U251 CNS
[52] = test system: HS 578T breast
[53] = test system: NCI-H522 lung
[54] = test system: RXF 393 renal
[55] = test system: SK-MEL-2 melanoma
[56] = test system: LOX IMVI melanoma
[57] = test system: MDA-MB-435
[58] = test system: HOP-92 NSCLC
[59] = test system: RPMI-8226 leukemia

## CC(C)c1ccc2nc3ccc(C(=O)NCCN(C)C)cn3c(=O)c2c1
[1]
  TGI: 35.9 µM
[2]
  TGI: 33.8 µM
[3]
  TGI: 33 µM
[4]
  TGI: > 100 µM
[5]
  TGI: 22.5 µM
[6]
  TGI: > 100 µM
[7]
  TGI: 32.4 µM
[8]
  TGI: 34.3 µM
[9]
  TGI: 27.8 µM
[10]
  TGI: 30.8 µM
[11]
  TGI: 31.7 µM
[12]
  TGI: 37.1 µM
[13]
  TGI: 24.8 µM
[14]
  TGI: 56.5 µM
[15]
  TGI: 28.3 µM
[16]
  TGI: 29.5 µM
[17]
  TGI: 29.2 µM
[18]
  TGI: 27.7 µM
[19]
  TGI: 30.8 µM
[20]
  TGI: 23.1 µM
[21]
  TGI: 34.7 µM
[22]
  TGI: 33.2 µM
[23]
  TGI: 31.8 µM
[24]
  TGI: > 100 µM
[25]
  TGI: 94.2 µM
[26]
  TGI: > 100 µM
[27]
  TGI: 39.9 µM
[28]
  TGI: 27.8 µM
[29]
  TGI: 29.6 µM
[30]
  TGI: 28.6 µM
[31]
  TGI: 31.4 µM
[32]
  TGI: 34.6 µM
[33]
  TGI: 33.5 µM
[34]
  TGI: 45 µM
[35]
  TGI: 33.7 µM
[36]
  TGI: 28.5 µM
[37]
  TGI: 32.3 µM
[38]
  TGI: 9.46 µM
[39]
  TGI: 38.4 µM
[40]
  TGI: 32.1 µM
[41]
  TGI: 36.3 µM
[42]
  TGI: 34.7 µM
[43]
  TGI: 30.6 µM
[44]
  TGI: 62.9 µM
[45]
  TGI: 63 µM
[46]
  TGI: 49.8 µM
[47]
  TGI: 23.8 µM
[48]
  TGI: 42.1 µM
[49]
  TGI: 33.9 µM
[50]
  TGI: 24.5 µM
[51]
  TGI: 39.9 µM
[52]
  TGI: 35.6 µM
[53]
  TGI: 29.3 µM

## NC(N)=NS(=O)(=O)c1ccc(NC(=O)c2cccc3c(NNc4ccc(S(N)(=O)=O)cc4)c4ccccc4nc23)cc1
[1]
  TGI: > 100 µM
[2]
  TGI: > 100 µM
[3]
  TGI: > 100 µM
[4]
  TGI: > 100 µM
[5]
  TGI: > 100 µM
[6]
  TGI: > 100 µM
[7]
  TGI: > 100 µM
[8]
  TGI: > 100 µM
[9]
  TGI: > 100 µM
[11]
  TGI: > 100 µM
[12]
  TGI: > 100 µM
[13]
  TGI: > 100 µM
[14]
  TGI: > 100 µM
[15]
  TGI: > 100 µM
[16]
  TGI: > 100 µM
[17]
  TGI: > 100 µM
[18]
  TGI: > 100 µM
[19]
  TGI: 86.3 µM
[20]
  TGI: 88.8 µM
[21]
  TGI: > 100 µM
[54]
  TGI: > 100 µM
[22]
  TGI: > 100 µM
[23]
  TGI: > 100 µM
[55]
  TGI: > 100 µM
[24]
  TGI: > 100 µM
[25]
  TGI: > 100 µM
[26]
  TGI: > 100 µM
[27]
  TGI: > 100 µM
[28]
  TGI: > 100 µM
[29]
  TGI: > 100 µM
[56]
  TGI: 36.5 µM
[30]
  TGI: > 100 µM
[31]
  TGI: > 100 µM
[32]
  TGI: > 100 µM
[33]
  TGI: > 100 µM
[34]
  TGI: > 100 µM
[35]
  TGI: > 100 µM
[36]
  TGI: > 100 µM
[57]
  TGI: > 100 µM
[37]
  TGI: > 100 µM
[38]
  TGI: 55 µM
[39]
  TGI: 79.1 µM
[40]
  TGI: > 100 µM
[41]
  TGI: > 100 µM
[42]
  TGI: > 100 µM
[58]
  TGI: 85.6 µM
[43]
  TGI: > 100 µM
[44]
  TGI: > 100 µM
[45]
  TGI: 82.6 µM
[46]
  TGI: 74.1 µM
[47]
  TGI: > 100 µM
[48]
  TGI: 66.2 µM
[59]
  TGI: > 100 µM
[49]
  TGI: > 100 µM
[50]
  TGI: > 100 µM
[51]
  TGI: > 100 µM
[52]
  TGI: > 100 µM
[53]
  TGI: 91.6 µM
